Data from patent US20220031680A1, “Donecopride As Neuroprotective Agent In the Treatment of Neurodegenerative Diseases” (priority 2018, published 2022).

Columns and labels:
[1] = test system: C57Bl6/J mice challenged with an intracerebroventricular injection of Aβ1-42 oligomers (AβO); test: Novel Object Recognition assay in mice icv injected with AβO; type: in vivo, mouse; settings: for mean discrimination index (NOR): day +16; for AβO-induced impairment of recognition memory (NOR): at all doses (1, 3, 9 mg/kg/day po)
Description: (§1) Briefly, 144 C57Bl6/J male mice (3 months of age) were received and housed (4 to 5 per cage) in quarantine during 7 days, or longer. Test items were dosed per os (through oral gavage) once daily at different concentrations from day −1 to day +17.
At days +15/+16, recognition memory was investigated using the Novel Object recognition test (NOR).
(§2) The different experimental groups are defined as follow: • GROUP A (vehicle CTRL): po vehicle AND icv injection of vehicle (n=12) • GROUP B (APO CTRL): po vehicle AND icv injection of AβO (n=12) • GROUP C (positive CTRL): po Donepezil subchronic AND icv injection of AβO (n=12) • GROUP D (Donecopride CTRL): po Donecopride (9 mg/kg) AND icv injection of vehicle (n=12) • GROUP E (Flucopride CTRL): po Flucopride (9 mg/kg) AND icv injection of vehicle (n=12) • GROUP F (Donecopride Treated): po Donecopride (1 mg/kg) AND icv injection of AβO (n=12) • GROUP G (Donecopride Treated): po Donecopride (3 mg/kg) AND icv injection of AβO (n=12) • GROUP H (Donecopride Treated): po Donecopride (9 mg/kg) AND icv injection of AβO (n=12) • GROUP I (Fluocopride Treated): po Flucopride (1 mg/kg) AND icv injection of AβO (n=12) • GROUP J (Flucopride Treated): po Flucopride (3 mg/kg) AND icv injection of AβO (n=12) • GROUP K (Flucopride Treated): po Flucopride (9 mg/kg) AND icv injection of AβO (n=12) • GROUP L (positive CTRL): ip Donepezil acute on test days AND icv injection of AβO (n=12)
(§3) For per os dosing, Donecopride and Flucopride were formulated by solubilization in 0.9% NaCl. Compound dosing (total volume of 200 μL) started one day before induction of the disease (through icv injection of AβO) and was done for 19 consecutive days.
(§4) Single intra-cerebroventricular injection of 144 mice with vehicle or APO (max. 24 mice per day, all mice randomized): under anesthesia (ip injection of a mixture of ketamine/xylasine at a dose of 110 and 15 mg/kg, respectively) AβO (1 μL), or vehicle (1 μL) were injected into the right lateral ventricle. Injections were made using 10 μL Hamilton micro syringes fitted with a 26-gauge needle. The procedure was terminated by a subcutaneous injection of metacam (analgesia) at a dose of 5 mg/kg. Animals were then placed individually in their home-cage and the cage was placed in a heated cabinet until the animal has fully recovered. Animals were carefully monitored to control recovery after anesthesia.
(§5) Preparation of APO: Aβ1-42 was obtained from Bachem (ref H1368) (batch number: 1052301). The preparation of stable Aβ1-42 oligomers was performed as described in Garcia et al. (2010) J. Neurosci. 30:7516-7527. The oligomeric preparation (identified as Batch #2016-14) contained a mixture of stable trimers and tetramers of Aβ1-42, as well as monomeric forms of the peptide. All oligomer preparations used were previously characterized in terms of oligomer composition and in vitro neurotoxicity.
6 independent trials involving each 24 mice (i.e. 2 mice from each experimental group) for a total of 144 mice at day +4—Behavioral tests were performed 1 h after dosing.
Detailed protocol: One day before the cognitive test (i.e. at day +15), mice are habituated during a 10 minutes' trial during which they are placed in an empty open field. The day of the cognitive test (i.e. day +16), animals are placed in the same open field and are allowed to explore freely two identical objects for a trial of five minutes (acquisition trial). Then the animals are returned in their home-cage for an inter-trial time of five minutes. During the retention trial, animals are allowed to explore two different objects: one familiar and one novel object. During this time, the experimenter, blind to the treatment, record the time the mouse is actively exploring each object. All trials are video recorded (Smart v3.0 software, Bioseb). A discrimination index is then generated: Discrimination index=(time exploring novel object−time exploring familiar object)/total exploration time. […]

[2] = test system: C57Bl6/J mice challenged with an intracerebroventricular injection of Aβ1-42 oligomers (AβO); test: Morris water maze (learning and long-term memory) in mice icv injected with AβO; type: in vivo, mouse
Description: as §1
From days +3 to days +14, learning capacities and long-term memory were investigated in the MWM assay.
as §2, §3, §4, §5
6 independent trials involving each 24 mice (i.e. 2 mice from each experimental group) for a total of 144 mice at day +4.
Detailed protocol: Habituation trials (visible platform)—The Morris water maze (MWM) was performed as described in Garcia et al. (2010) J. Neurosci. 30:7516-7527. The experimental apparatus consists of a circular water tank (diameter=100 cm; height=50 cm) containing water at 21° C. to a depth of 25 cm and rendered opaque to block the view past the water surface by adding an aqueous acrylic emulsion. A platform (diameter=10 cm) is used and placed at the midpoint of a quadrant. The pool is located in a test room, homogeneously illuminated at 100 lux. The swimming path of the animals is recorded using a video tracking system. Mice are brought to the experimental room for at least 30 min prior to testing, to enable acclimation to the experimental room conditions. Navigation to a visible platform is carried out before place-navigation, to evaluate visual and motor abilities of all mice. […]

[3] = 3 mg/kg/day po, icv AβO, day 5 of training
[4] = 9 mg/kg/day po, icv vehicle, day 5 of training
[5] = at all doses (1, 3, 9 mg/kg/day po), icv AβO
[6] = ip acute on test day, icv AβO (Group L)
[7] = po sub-chronic, icv AβO (Group C)

Row | Structure (SMILES) | mean discrimination index (NOR) ([1]; 9 mg/kg/day po, icv vehicle) | AβO-induced impairment of recognition memory (NOR) ([1]; icv AβO) | mean crossing number (MWM probe trial) ([2]; 3 mg/kg/day po, icv AβO) | mean escape latency (MWM learning trials) [2, 3] [s] | mean crossing number (MWM probe trial) ([2]; 9 mg/kg/day po, icv vehicle) | mean latency to target (MWM probe trial) ([2]; 9 mg/kg/day po, icv vehicle) [s] | mean escape latency (MWM learning trials) [2, 4] [s] | AβO-induced impairment of long-term memory evaluated using the number of crossings [2, 5] | time spent in target vs opposite quadrant (MWM probe trial) ([2]; icv AβO) | also measured
1 | COc1cc(N)c(Cl)cc1C(=O)CCC1CCN(CC2CCCCC2)CC1 [Donecopride] | 0.29±0.04 | dose-dependent inhibition | 5.1±0.6 | 12.7 ± 1.5 | 4.6±0.5 | 7.2 ± 1.5 | 13.0 ± 1.7 | inhibition | did not improve | mean discrimination index (NOR) ([1]; 9 mg/kg/day po, icv AβO): 0.43±0.06; mean latency to target (MWM probe trial) ([2]; 1 mg/kg/day po, icv AβO): 9.3 ± 1.4 s; AβO-induced impairment of long-term memory evaluated using the latency to target [2, 5]: inhibition
2 | COc1cc2c(cc1OC)C(=O)C(CC1CCN(Cc3ccccc3)CC1)C2 (centres unmarked) [Donepezil, reference compound] | – | – | – | – | – | – | – | – | failed to improve | mean discrimination index (NOR) [1, 6]: 0.30±0.07; mean discrimination index (NOR) [1, 7]: 0.29±0.09; mean crossing number (MWM probe trial) [2, 6]: 3.8±0.4; mean latency to target (MWM probe trial) [2, 6]: 13.3 ± 2.3 s; mean escape latency (MWM learning trials) ([2]; ip acute on test day, icv AβO (Group L), day 5 of training): 13.4 ± 1.5 s; mean crossing number (MWM probe trial) [2, 7]: 3.7±0.4; mean latency to target (MWM probe trial) [2, 7]: 14.6 ± 2.7 s; mean escape latency (MWM learning trials) ([2]; po sub-chronic, icv AβO (Group C), after five days of training (day 5)): 14.7 ± 1.9 s
3 | COc1cc(N)c(F)cc1C(=O)CCC1CCN(CC2CCCCC2)CC1 [Flucopride] | 0.36±0.06 | dose-dependent inhibition (bell-shaped curve) | 4.1±0.6 | 12.5 ± 1.1 | 4.6±0.7 | 12.0 ± 2.1 | 16.3 ± 2.0 | inhibition | did not improve | mean discrimination index (NOR) ([1]; 3 mg/kg/day po, icv AβO): 0.46±0.05; mean escape latency (MWM learning trials) ([2]; 1 mg/kg/day po, icv AβO, day 5 of training): 13.1 ± 1.1 s; improvement of learning capacities (MWM learning trials) ([2]; 9 mg/kg/day po, icv AβO): had no effect; mean latency to target (MWM probe trial) ([2]; 9 mg/kg/day po, icv AβO): 10.7 ± 1.9 s; mean escape latency (MWM learning trials) ([2]; 9 mg/kg/day po, icv vehicle, day 4 of training): 14.2 ± 1.9 s
